What was measured:
[1] = tested on: BxPC3 pancreatic carcinoma cells; test: MTT cytotoxicity test, BxPC3; format: cell-based, human; conditions: BxPC3, 72 h, MTT, ± S.D.
Protocol: (§1) The cytotoxic activity of the complexes and of the uncoordinated ligands was evaluated by the MTT test on a panel of human tumor cell lines containing examples of pancreatic (BxPC3), colorectal (HCT-15), breast (MCF-7), cervical (A431), and lung (A549) cancers as well as of melanoma (A375). For comparison purposes, the cytotoxicity of cisplatin was evaluated under the same experimental conditions.
(§2) Cisplatin was dissolved in 0.9% NaCl solution.
(§3) Human breast (MCF-7), colon (HCT-15), lung (A549) and pancreatic (BxPC3) carcinoma cell lines together with melanoma (A375) cells were obtained from American Type Culture Collection (ATCC, Rockville, MD). The human ovarian cancer cell line 2008 and its cisplatin resistant variant, C13*, were kindly provided by Prof. G. Marverti (Department of Biomedical Science of Modena University, Italy). Human cervical carcinoma (A431) cells were kindly provided by Prof. F. Zunino (Division of Experimental Oncology B, Istituto Nazionale dei Tumori, Milan, Italy). Cell lines were maintained in the logarithmic phase at 37 °C in a 5% carbon dioxide atmosphere using the following culture media containing 10% fetal calf serum (Euroclone, Milan, Italy), antibiotics (50 units/mL penicillin and 50 μg/mL streptomycin) and 2 mM L-glutamine: (i) RPMI-1640 medium (Euroclone) for 2008, C13*, MCF-7, HCT-15, A431 and BxPC3 cells, (ii) F-12 HAM’S (Sigma Chemical Co.) for A549 cells, iii) DMEM (Sigma Chemical Co.) for A375 cells.
(§4) The growth inhibitory effect toward tumor cells was evaluated by means of the MTT assay. Briefly, (3–8) × 10^3 cells/well, dependent upon the growth characteristics of the cell line, were seeded in 96-well microplates in growth medium (100 μL). After 24 h, the medium was removed and replaced with fresh medium containing the compound to be studied at the appropriate concentration. Triplicate cultures were established for each treatment. After 24, 48, or 72 h, each well was treated with 10 μL of a 5 mg/mL MTT saline solution and, after 5 h of incubation, 100 μL of a sodium dodecylsulfate (SDS) solution in 0.01 M HCl was added. After an overnight incubation, cell growth inhibition was detected by measuring the absorbance of each well at 570 nm using a Bio-Rad 680 microplate reader. The mean absorbance for each drug dose was expressed as a percentage of the control, untreated well absorbance and plotted vs drug concentration. The IC50 values, the drug concentrations that decrease the mean absorbance at 570 nm to 50% of that of untreated control wells, were calculated from the dose–response curves with the four-parameter logistic model (4PL). The final value is the mean ± S.D. of at least three independent experiments performed in triplicate.

[2] = tested on: HCT-15 colon carcinoma cells; test: MTT cytotoxicity test, HCT-15; format: cell-based, human; conditions: HCT-15, 72 h, MTT, ± S.D.
Protocol: as §1, §2, §3, §4

[3] = tested on: MCF-7 breast carcinoma cells; test: MTT cytotoxicity test, MCF-7; format: cell-based, human; conditions: MCF-7, 72 h, ± S.D.
Protocol: as §1, §2, §3, §4

[4] = tested on: A431 cervical carcinoma cells; test: MTT cytotoxicity test, A431; format: cell-based, human; conditions: A431, 72 h, ± S.D.
Protocol: as §1, §2, §3, §4

[5] = tested on: A549 lung carcinoma cells; test: cells; conditions: A549, 72 h, MTT, ± S.D.
Protocol: as §1, §2, §3, §4

A375 melanoma cells [6] = test: MTT cytotoxicity test, A375; format: cell-based, human; conditions: A375, 72 h, ± S.D.
Protocol: as §1, §2, §3, §4

[7] = tested on: 2008 ovarian cancer cells; test: MTT cytotoxicity test, cisplatin-sensitive 2008; format: cell-based, human; conditions: 2008 cisplatin-sensitive, 72 h, ± S.D.
Protocol: The cytotoxic properties of the complexes were also evaluated in a pair of tumor cell lines suitably selected for their sensitivity and resistance to cisplatin (adenocarcinoma cells 2008/C13^*). Cross-resistance profiles were evaluated by means of the resistance factor (RF), defined as the ratio between IC50 values calculated for the resistant cells and those obtained with the sensitive ones (Table 2). The phenomenon of cisplatin resistance is multifactorial in nature. Nevertheless, the main molecular mechanisms involved in drug resistance in C13* cancer cells have largely been identified. Indeed, in this cell line resistance is correlated to high cellular glutathione and thioredoxin reductase levels, reduced cellular drug uptake and enhanced repair of DNA damage. […] The RF values calculated for all derivatives were six- to nine-fold lower than that of cisplatin, clearly indicating the absence of cross-resistance.
as §2
Triplicate cultures were established for each treatment.

[8] = tested on: C13* cisplatin-resistant ovarian cancer cells; test: MTT cytotoxicity test, cisplatin-resistant C13*; format: cell-based, human
Protocol: The cytotoxic properties of the complexes were also evaluated in a pair of tumor cell lines suitably selected for their sensitivity and resistance to cisplatin (adenocarcinoma cells 2008/C13^*). Cross-resistance profiles were evaluated by means of the resistance factor (RF), defined as the ratio between IC50 values calculated for the resistant cells and those obtained with the sensitive ones (Table 2). The phenomenon of cisplatin resistance is multifactorial in nature.
as §2, §3, §4

[9] = Log P octanol/water, shake flask method with ICP-MS; format: physicochemical; conditions: n-octanol / 0.9% NaCl water, Pt by ICP-MS
Protocol: Partition coefficients (logP values) for octanol/water partition were determined in order to examine whether a correlation exists between lipophilicity and accumulation into cells. The log P values obtained (Table 3) give the trend in lipophilicity as mono indole acid complex < succinate complex < acetate complex < bis indole acid complex < benzoate complex for both the IAA and the IPA series.
The logP values of the Pt(IV) compounds were determined using the shake flask method. The respective Pt(IV) complex was dissolved in 0.9% NaCl (w/v) ultrapure water (presaturated with n-octanol). The solutions were sonicated and filtered to remove undissolved Pt(IV) compounds. The initial Pt concentrations were determined by ICP-MS. Subsequently, the Pt(IV) solutions were added to an equal volume of n-octanol (presaturated with 0.9% NaCl (w/v) ultrapure water). The heterogeneous mixtures were shaken vigorously for 30 min before centrifuging at 4000 rpm for 30 min to achieve phase separation. The final Pt concentration in the aqueous phase was determined again by ICP-MS. The logarithm of the ratio of Pt concentrations in the organic and aqueous phases was calculated to determine the logP values. All experiments were done in duplicate.

[10] = tested on: panel of human tumor cell lines (BxPC3, HCT-15, MCF-7, A431, A549, A375); test: MTT cytotoxicity, mean over panel of human tumor cell lines; format: cell-based; conditions: mean over the six cell lines of Table 1, 72 h
Protocol: as §1, §4

[11] = Stability in physiological saline by mass spectrometry; format: physicochemical; conditions: 0.9% NaCl
Protocol: Ten indole carboxylic acid Pt(IV) complexes with IAA (indole-3-acetic acid, 1A–5A) and IPA (indole-3-propionic acid, 1P–5P) were synthesized and the structures are depicted in Fig. 3. The monocarboxylato complexes 1A and 1P were prepared by reacting oxoplatin, c,c,t-[Pt(NH3)2Cl2(OH)2], with 0.8 eq. of the activated NHS-ester of the corresponding indole carboxylic acid. The dicarboxylato complexes with two indole acids in axial position (2A and 2P) were obtained using an excess of the NHS-ester activated acid (20 eq.), since the second hydroxo group of oxoplatin is much less reactive than the first one. The unsymmetrically substituted complexes (3A–5A and 3P–5P) were prepared by reaction of the monocarboxylate complexes 1A and 1P with the corresponding anhydrides. We chose three different anhydrides (benzoic, acetic and succinic anhydride) to vary the lipophilicity of the resulting Pt(IV) complexes. All the synthesized Pt(IV) complexes were characterized using elemental analysis, ESI-MS, FT-IR, ^1H and ^195Pt NMR spectroscopy. The purity of the complexes has been assessed through elemental analysis and–where solubility was not an issue–by high performance liquid chromatography (HPLC). The dicarboxylato complexes are poorly soluble in organic solvents. The proton NMR spectra of the complexes in DMSO-d6 show the typical signal of the NH3 protons which is a multiplet at around 6 ppm for the monocarboxylato complexes 1P and 1A (typical ^1JNH and ^2JPtH values around 50 Hz) while it is a broad signal around 6.5 ppm for the bis-substituted complexes (2–5A and 2–5P, Supplementary Information)[44]. The mass spectra of the complexes show a peak in the negative mode with the typical platinum isotope pattern corresponding to M − H^− or M + Cl^−. Stability studies on representative examples of the complexes (1A, 1P, 3A and 3P) via mass spectrometry confirm that the complexes are stable in physiological saline (0.9% NaCl) for at least 48 h (Supplementary Information).
Complexes 1A, 1P, 3A and 3P where dissolved in a minimum amount of DMF and diluted 1:20 with physiological saline (0.9% NaCl). Mass spectra were recorded at t = 0 and after 48 hours.

A375 melanoma cells [12] = test: Cellular accumulation of Pt (GF-AAS); format: cell-based, human; conditions: A375, 1.5 and 3 μM, 6 and 24 h

For `[NH2][Pt]([NH2])([Cl])([Cl])([O]C(=O)CCc1c[nH]c2ccccc12)[O]C(=O)c1ccccc1` [Complex 3P], the IC50 [1] was 2920 ± 1130 nM, the IC50 [2] was 5940 ± 630 nM and the IC50 [3] was 2280 ± 460 nM. The IC50 [4] was 2000 ± 320 nM, the IC50 [5] was 960 ± 60 nM and the IC50 (A375 melanoma cells [6]) was 1510 ± 1250 nM. For the same compound, the IC50 [7] was 4790 ± 690 nM, the IC50 ([8]; C13* cisplatin-resistant, 72 h, MTT, ± S.D.) was 1470 ± 680 nM and the “RF (resistance factor)” value ([8]; IC50 resistant (C13*) / parent line (2008)) was 0.3. The “Log P (octanol/water)” value [9] was −0.028 ± 0.07, the IC50 [10] was 2600 nM and the “stable in physiological saline” value [11] was “at least 48 h”. The “cellular platinum accumulation (in words)” value (A375 melanoma cells [12]) was “internalized most efficiently”.

Source: article PMC4941645, “Oxidative Stress Induced by Pt(IV) Pro-drugs Based on the Cisplatin Scaffold and Indole Carboxylic Acids in Axial Position” (Scientific Reports, 2016)
